We go through 38 molecules from patent US9120779B2, “Inhibitors of HCV NS5A” (PRESIDIO PHARMACEUTICALS, INC., priority 2008, dated 2015).

The subject of the test is HCV genotype 1b replicon in Huh 7 cells. The test is described as follows: HCV replicon assay (luciferase readout, 1b_Huh-Luc/Neo-ET cell line). In kind it is cell-based. Conditions: Hepatitis C virus, Huh-7, 72 h. An outline of the steps: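 Inhibition expressed as percent of untreated control luciferase signal and fitted to a Hill-slope equation for EC50, with repeat determinations. Compounds were added in triplicate to Huh 7 cells stably expressing the genotype 1b luciferase replicon, with 72 h exposure.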
A general note: In antiviral work, replicon cells carry a viral genome segment that copies itself.

Setting [1] is: read-out: Inhibition of HCV genotype 1b, Table 5, 72 h incubation.
The mark [2] stands for this setting: read-out: Inhibition of HCV genotype 1b, Table 3, 72 h incubation.
Setting [3] is: read-out: Inhibition of HCV genotype 1b, Table 1, 72 h incubation.

Like-named read-outs stand apart in the source and are kept apart here.

For `COC(=O)N[C@H](C(=O)N1CCC[C@H]1c1ncc(C23CCC(c4ccc(-c5cnc([C@@H]6CCCN6C(=O)[C@H](NC6CCOCC6)c6ccccc6)[nH]5)cc4)(CC2)CC3)[nH]1)C(C)C` [compound 2068], the EC50 under setting [1] was under 1 nM. On to `CCNC(=O)N[C@H](C(=O)N1CCC[C@H]1c1ncc(-c2ccc(C34CCC(c5cnc([C@@H]6CCCN6C(=O)[C@@H](NC(=O)OC)C(C)C)[nH]5)(CC3)CC4)cc2)[nH]1)C(C)C` [compound 2096], for which the EC50 under setting [1] was under 1 nM. On the same count and under the same terms, under `COC(=O)N[C@H](C(=O)N[C@@H](C)c1ncc(C23CCC(c4ccc(-c5cnc([C@@H]6CCCN6C(=O)[C@@H](NC(=O)OC)C(C)C)[nH]5)cc4)(CC2)CC3)[nH]1)C(C)C` [compound 2097] stands under 1 nM. Take `COC(=O)N[C@@H](C(=O)N1CCOC[C@H]1c1ncc(C2CCN(c3c(F)cc(-c4cnc([C@@H]5CCCN5C(=O)[C@H](NC(=O)C5CC5)c5ccccc5)[nH]4)cc3F)CC2)[nH]1)c1ccccc1` [compound 502]: the EC50 under setting [2] was under 1 nM. Take `COC(=O)N[C@H](C(=O)N1CCC[C@H]1c1ncc(C23CCC(c4ccc(-c5cnc([C@@H]6CCCN6C(=O)[C@H](NC(=O)N6CCC(O)CC6)c6ccccc6)[nH]5)cc4)(CC2)CC3)[nH]1)C(C)C` [compound 2101]: the EC50 under setting [1] is under 1 nM. Consider `COC(=O)N[C@H](C(=O)N1CCC[C@H]1c1ncc(C23CCC(c4ccc5c(c4)nc([C@@H]4CCCN4C(=O)[C@@H](NC(=O)OC)C(C)C)n5C)(CC2)CC3)[nH]1)C(C)C` [compound 2116], for which, for the setting “read-out: Inhibition of HCV genotype 1b, Table 8, 72 h incubation”, the EC50 lay in the range of 10 to 999 nM. Turning to `COC(=O)N[C@@H](C(=O)N1CCC[C@H]1c1ncc(C2CCN(c3c(F)cc(-c4cnc([C@@H]5CCCN5C(=O)[C@H](NC(=O)C5CC5)c5ccccc5)[nH]4)cc3F)CC2)[nH]1)c1ccccc1` [compound 480], under setting [2], the EC50 was under 1 nM.

`O=C(N[C@@H](C(=O)N1CCC[C@H]1c1ncc(-c2ccc(C3CCC(c4cnc([C@@H]5CCCN5C(=O)[C@H](NC(=O)C5CC5)c5ccccc5)o4)CC3)cc2)[nH]1)c1ccccc1)C1CC1` (some centres unmarked) [compound 353]: the EC50 under setting [3] was under 1 nM.

On to `CC(C)(C)OC(=O)N[C@@H](C(=O)N1CCC[C@H]1c1ncc(-c2ccc(C34CCC(c5cnc([C@@H]6CCCN6C(=O)[C@H](NC(=O)OC(C)(C)C)c6ccccc6)o5)(CC3)CC4)cc2)[nH]1)c1ccccc1` [compound 605], for which the EC50 under setting [1] was 1 to 9.9 nM. The same measure, in the same setting: as for `COC(=O)N[C@H](C(=O)N1CCC[C@H]1c1ncc(C23CCC(c4ccc(-c5cnc([C@@H]6CCCN6C(=O)[C@@H](NC(=O)N6CCOCC6)C(C)C)[nH]5)cc4)(CC2)CC3)[nH]1)C(C)C` [compound 645], the figure is under 1 nM.

Turning to `CC(C)[C@H](NC(=O)OC(C)(C)C)C(=O)N1CCC[C@H]1c1ncc(-c2ccc([C@H]3CC[C@H](c4cnc([C@@H]5CCCN5C(=O)[C@@H](NC(=O)OC(C)(C)C)C(C)C)[nH]4)CC3)cc2)[nH]1` [compound 383], the EC50 under setting [3] was 10 to 999 nM. For the molecule `COC(=O)N[C@@H](C(=O)N1CCC[C@H]1c1ncc(-c2cc(F)c(N3CCC(c4cnc([C@@H]5CCCCN5C(=O)[C@H](NC(=O)OC)c5ccccc5)[nH]4)CC3)c(F)c2)[nH]1)c1ccccc1` [compound 487], the EC50 under setting [2] was under 1 nM. As for `COC(=O)N[C@H](C(=O)N1CCC[C@H]1c1ncc(-c2ccc(C34CCC(c5cnc([C@@H]6CCCN6C(=O)[C@H](NC(=O)OC6CCOCC6)C(C)C)[nH]5)(CC3)CC4)cc2)[nH]1)C(C)C` [compound 2084], the EC50 under setting [1] is under 1 nM. Regarding `COC(=O)N[C@@H](C(=O)N1CCC[C@H]1c1nc2ccc(-c3ccc(-c4ccc5nc([C@@H]6CCCN6C(=O)[C@H](NC(=O)OC)C(C)C)[nH]c5c4)cc3)cc2[nH]1)C(C)C` [compound 2035], the EC50 (read-out: Inhibition of HCV genotype 1b, Table 4, 72 h incubation) fell in the range of 10 to 999 nM. `CCNC(=O)N[C@@H](C(=O)N1CCC[C@H]1c1ncc(-c2ccc(C34CCC(c5cnc([C@@H]6CCCN6C(=O)[C@@H](NC(=O)OC)C(C)C)[nH]5)(CC3)CC4)cc2)[nH]1)c1ccccc1` [compound 2103]: the EC50 under setting [1] was under 1 nM.

With `COC(=O)N[C@H](C(=O)N1CCC[C@H]1c1ncc(C23CCC(c4ccc(-c5cnc([C@@H]6CCCN6C(=O)[C@@H](NC(=O)C6CCN(C)CC6)C(C)C)[nH]5)cc4)(CC2)CC3)[nH]1)C(C)C` [compound 647], the EC50 under setting [1] lay in the range of 10 to 999 nM. For the molecule `O=C(N[C@H]1CC[C@H](c2ccc(-c3cnc([C@@H]4CCCN4C(=O)[C@H](NC(=O)N4CCOCC4)c4ccccc4)[nH]3)cc2)CC1)[C@@H]1CCCN1C(=O)[C@H](NC(=O)N1CCOCC1)c1ccccc1` [compound 354], the EC50 under setting [3] fell in the range of 1 to 9.9 nM. For `CC(C)[C@H](NC(=O)N1CCCCC1)C(=O)N1CCC[C@H]1c1ncc(-c2ccc(C34CCC(c5cnc([C@@H]6CCCN6C(=O)[C@@H](NC(=O)N6CCCCC6)C(C)C)[nH]5)(CC3)CC4)cc2)[nH]1` [compound 639], the EC50 under setting [1] was over 1000 nM. Take `C[C@H](NC(=O)[C@H](NC(=O)OC(C)(C)C)c1ccccc1)c1ncc(C2CCN(c3c(F)cc(-c4cnc([C@@H]5CCCN5C(=O)[C@H](NC(=O)OC(C)(C)C)c5ccccc5)[nH]4)cc3F)CC2)[nH]1` [compound 513]: the EC50 under setting [2] was under 1 nM. On to `COC(=O)N[C@@H](C)C(=O)N1CCC[C@H]1c1ncc(-c2ccc([C@H]3CC[C@H](c4cnc([C@@H]5CCCN5C(=O)[C@H](C)NC(=O)OC)[nH]4)CC3)cc2)[nH]1` [compound 387], for which the EC50 under setting [3] was under 1 nM. Still for that read-out and setting: under `COC(=O)N[C@@H](C(=O)N1CCC[C@H]1c1ncc(-c2ccc([C@H]3CC[C@H](NC(=O)[C@@H]4CCCN4C(=O)[C@H](NC(=O)N4CCOCC4)c4ccccc4)CC3)cc2)[nH]1)c1ccccc1` [compound 369] stands 1 to 9.9 nM. Consider `COC(=O)N[C@H](C(=O)N1CCC[C@H]1c1ncc(-c2ccc(C34CCC(c5cnc([C@@H]6CCCN6C(=O)[C@@H](C)NC(=O)OC)[nH]5)(CC3)CC4)cc2)[nH]1)C(C)C` [compound 2062], for which, under setting [1], the EC50 was under 1 nM. Regarding `COC(=O)N[C@H](C(=O)N1CCC[C@H]1c1ncc(-c2cc(F)c(N3CCC(c4cnc([C@@H]5CCCCN5C(=O)[C@@H](NC(=O)OC)C(C)C)[nH]4)CC3)c(F)c2)[nH]1)C(C)C` [compound 503], the EC50 under setting [2] was under 1 nM. `CNC(=O)N[C@@H](C(=O)N1CCC[C@H]1c1ncc(-c2ccc(C34CCC(c5cnc([C@@H]6CCCN6C(=O)[C@@H](NC(=O)OC)C(C)C)[nH]5)(CC3)CC4)cc2)[nH]1)c1ccccc1` [compound 2102]: the EC50 under setting [1] is under 1 nM.

`COC(=O)N[C@H](C(=O)N1CCC[C@H]1c1ncc(-c2ccc(C34CCC(c5cnc([C@H](C)NC(=O)[C@H](NC(=O)OC)c6ccccc6)[nH]5)(CC3)CC4)cc2)[nH]1)C(C)C` [compound 2104]: the EC50 under setting [1] was under 1 nM. On to `COC(=O)N[C@@H](C(=O)N1CCCC[C@H]1c1ncc(C2CCN(c3c(F)cc(-c4cnc([C@@H]5CCCN5C(=O)[C@H](NC(=O)C5CC5)c5ccccc5)[nH]4)cc3F)CC2)[nH]1)c1ccccc1` [compound 493], for which the EC50 under setting [2] was under 1 nM. Turning to `COC(=O)N[C@H](C(=O)N1CCC[C@H]1c1ncc(-c2ccc([C@H]3CC[C@H](c4cnc([C@@H]5CCCN5C(=O)[C@@H](c5ccccc5)N(C)C)[nH]4)CC3)cc2)[nH]1)C(C)C` [compound 940], under setting [3], the EC50 was under 1 nM. Consider `C[C@H](NC(=O)[C@H](NC(=O)C1CC1)c1ccccc1)c1ncc(C2CCN(c3c(F)cc(-c4cnc([C@@H]5CCCN5C(=O)[C@H](NC(=O)C5CC5)c5ccccc5)[nH]4)cc3F)CC2)[nH]1` [compound 514], for which the EC50 under setting [2] was under 1 nM. In the case of `O=C(N[C@@H](C(=O)N1CCC[C@H]1C(=O)N[C@H]1CC[C@H](c2ccc(-c3cnc([C@@H]4CCCN4C(=O)[C@H](NC(=O)C4CC4)c4ccccc4)[nH]3)cc2)CC1)c1ccccc1)C1CC1` [compound 350], the EC50 under setting [3] is under 1 nM. In the case of `COC(=O)N[C@H](C(=O)N1CCC[C@H]1c1ncc(C23CCC(c4ccc(-c5cnc([C@@H]6CCCN6C(=O)[C@H](C(C)C)N(C)C)[nH]5)cc4)(CC2)CC3)[nH]1)C(C)C` [compound 2077], under setting [1], the EC50 was under 1 nM. Turning to `CCOC(=O)N[C@@H](C(=O)N1CCC[C@H]1c1ncc(C2CCN(c3c(F)cc(-c4cnc([C@@H]5CCCN5C(=O)[C@H](NC(=O)OC)c5ccccc5)[nH]4)cc3F)CC2)[nH]1)c1ccccc1` [compound 476], under setting [2], the EC50 is under 1 nM. Regarding `O=C(N[C@@H](C(=O)N1CCC[C@H]1C(=O)N[C@H]1CC[C@@H](c2ccc(-c3cnc([C@@H]4CCCN4C(=O)[C@H](NC(=O)C4CC4)c4ccccc4)[nH]3)cc2)CC1)c1ccccc1)C1CC1` [compound 351], the EC50 under setting [3] is under 1 nM.

As to `COC(=O)N[C@H](C(=O)N1CCCC[C@H]1c1ncc(C2CCN(c3c(F)cc(-c4cnc([C@@H]5CCCN5C(=O)[C@H](NC(=O)OC)c5ccccc5)[nH]4)cc3F)CC2)[nH]1)C(C)C` [compound 500], the EC50 under setting [2] was under 1 nM. For the molecule `CCNC(=O)N[C@H](C(=O)N1CCC[C@H]1c1ncc(C23CCC(c4ccc(-c5cnc([C@@H]6CCCN6C(=O)[C@@H](NC(=O)OC)C(C)C)[nH]5)cc4)(CC2)CC3)[nH]1)C(C)C` [compound 2100], the EC50 under setting [1] is under 1 nM.

As for `COC(=O)NC(C(=O)N1CCC[C@H]1c1ncc(-c2ccc(C34CCC(c5cnc([C@H](C)NC(=O)[C@@H](NC(=O)OC)C(C)C)[nH]5)(CC3)CC4)cc2)[nH]1)c1ccccc1` (some centres unmarked) [compound 2105], under setting [1], the EC50 was under 1 nM. As for `COC(=O)N[C@H](C(=O)N1CCC[C@H]1c1ncc(-c2ccc(C34CCC(c5cnc([C@@H]6CCCN6C(=O)[C@@H](NC(=O)OC)C(C)(C)C)[nH]5)(CC3)CC4)cc2)[nH]1)C(C)(C)C` [compound 2093], under setting [1], the EC50 is under 1 nM. Regarding `COC(=O)N[C@@H](C(=O)N1CCC[C@H]1c1ncc(C2CCN(c3c(F)cc(-c4cnc([C@@H]5CCCN5C(=O)[C@H](NC(=O)N5CCOCC5)c5ccccc5)[nH]4)cc3F)CC2)[nH]1)c1ccccc1` [compound 481], the EC50 under setting [2] was under 1 nM. Turning to `COC(=O)N[C@@H](C(=O)N1CCC[C@H]1c1ncc(-c2ccc(C3CCC(c4cnc([C@@H]5CCCN5C(=O)[C@H](NC(=O)OC)c5ccccc5)[nH]4)CC3)cc2)[nH]1)c1ccccc1` (some centres unmarked) [compound 373], under setting [3], the EC50 is under 1 nM.
